Structures can show the parent of a compound that is named as a salt. Where two headings read alike, the source gives them in different places.
How the values were obtained:
Format in all cases: biochemical
[1] = target: T1, recombinant human DAO (diamine oxidase) (Homo sapiens, UniProt P19801); test: Activity evaluation on recombinant human DAO (Amplex Red/HRP-coupled assay, 1 mM putrescine substrate); conditions: read-out: Inhibitory Activity (IC50, nM) DAO
T1 construct: purchased R&D systems
T1 sequence (P19801 20-751): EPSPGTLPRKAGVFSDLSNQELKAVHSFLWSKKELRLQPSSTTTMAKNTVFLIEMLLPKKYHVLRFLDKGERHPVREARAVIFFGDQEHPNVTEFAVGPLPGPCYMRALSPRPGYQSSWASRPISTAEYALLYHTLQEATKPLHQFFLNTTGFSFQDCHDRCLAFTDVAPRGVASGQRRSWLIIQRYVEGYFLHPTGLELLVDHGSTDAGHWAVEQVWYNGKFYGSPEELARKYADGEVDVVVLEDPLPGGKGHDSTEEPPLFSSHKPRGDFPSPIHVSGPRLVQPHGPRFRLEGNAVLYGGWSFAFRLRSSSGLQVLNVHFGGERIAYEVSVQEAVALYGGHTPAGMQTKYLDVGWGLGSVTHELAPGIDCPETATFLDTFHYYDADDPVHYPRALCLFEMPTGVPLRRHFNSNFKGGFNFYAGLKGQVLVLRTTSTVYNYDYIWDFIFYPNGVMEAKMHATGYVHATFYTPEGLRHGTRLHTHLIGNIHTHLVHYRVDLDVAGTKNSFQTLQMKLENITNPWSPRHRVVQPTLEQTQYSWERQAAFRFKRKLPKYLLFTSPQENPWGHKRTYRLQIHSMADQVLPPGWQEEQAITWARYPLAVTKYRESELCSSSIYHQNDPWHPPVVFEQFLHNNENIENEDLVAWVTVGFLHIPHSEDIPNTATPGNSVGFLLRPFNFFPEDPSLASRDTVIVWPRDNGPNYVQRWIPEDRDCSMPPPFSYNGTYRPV
Procedure, shortened: (§1)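 Using an HRP-coupled Amplex Red readout (544/590 nm, kinetic over 1–2 h), IC50 values were fitted by 4-parameter logistic model to percent decrease in signal rate against DMSO control. Compounds (1:3 dilutions, 8 points, <1% DMSO) sat 30 min at 37 °C with enzyme in pH 7.4 phosphate buffer before substrate, 200 uM Amplex Red and HRP were added.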

recombinant human VAP-1 = target: T2, recombinant human VAP-1 (Homo sapiens, UniProt Q16853); test: Activity evaluation on recombinant human VAP-1 (Amplex Red/HRP-coupled hydrogen peroxide assay, benzylamine substrate); conditions: read-out: Inhibitory Activity (IC50, nM) human VAP-1
T2 construct: purchased R&D systems
T2 sequence (Q16853 1-763): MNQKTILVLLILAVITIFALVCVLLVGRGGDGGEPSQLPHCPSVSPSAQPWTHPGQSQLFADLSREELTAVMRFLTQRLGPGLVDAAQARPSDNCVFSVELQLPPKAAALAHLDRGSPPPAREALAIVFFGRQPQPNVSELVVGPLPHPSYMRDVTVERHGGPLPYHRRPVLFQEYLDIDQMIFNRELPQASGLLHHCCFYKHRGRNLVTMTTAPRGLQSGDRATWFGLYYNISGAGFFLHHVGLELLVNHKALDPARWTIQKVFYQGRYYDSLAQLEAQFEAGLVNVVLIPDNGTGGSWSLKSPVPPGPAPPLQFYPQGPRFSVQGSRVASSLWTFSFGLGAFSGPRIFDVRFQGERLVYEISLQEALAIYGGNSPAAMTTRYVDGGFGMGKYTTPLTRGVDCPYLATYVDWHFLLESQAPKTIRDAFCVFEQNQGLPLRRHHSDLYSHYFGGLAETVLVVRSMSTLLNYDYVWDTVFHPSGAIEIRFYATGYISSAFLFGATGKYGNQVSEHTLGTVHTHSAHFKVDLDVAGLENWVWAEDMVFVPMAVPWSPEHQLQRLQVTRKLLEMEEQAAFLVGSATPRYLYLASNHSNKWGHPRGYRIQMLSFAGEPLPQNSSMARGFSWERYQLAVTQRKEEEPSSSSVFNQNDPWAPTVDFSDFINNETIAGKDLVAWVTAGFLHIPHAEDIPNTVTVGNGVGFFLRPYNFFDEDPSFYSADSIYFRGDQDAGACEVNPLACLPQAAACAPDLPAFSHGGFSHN
Procedure, shortened: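 Hydrogen peroxide from benzylamine (1 mM) oxidation by human recombinant VAP-1 detected via HRP-coupled Amplex Red (200 uM) fluorescence, kinetic over 1–2 h. Enzyme and compound preincubated 30 min at 37 °C, pH 7.4 phosphate; 8-point dose response, signal-rate decrease versus DMSO control fitted to four-parameter logistic for IC50.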

[2] = target: T3, recombinant human MAO-A (monoamine oxidase-A) (Homo sapiens, UniProt P21397); test: Activity evaluation on recombinant human MAO-A (Amplex Red/HRP-coupled assay, 0.5 mM tyramine substrate); conditions: read-out: Inhibitory Activity (IC50, nM) MAO-A
T3 construct: purchased Sigma-Aldrich
T3 sequence (P21397 1-527): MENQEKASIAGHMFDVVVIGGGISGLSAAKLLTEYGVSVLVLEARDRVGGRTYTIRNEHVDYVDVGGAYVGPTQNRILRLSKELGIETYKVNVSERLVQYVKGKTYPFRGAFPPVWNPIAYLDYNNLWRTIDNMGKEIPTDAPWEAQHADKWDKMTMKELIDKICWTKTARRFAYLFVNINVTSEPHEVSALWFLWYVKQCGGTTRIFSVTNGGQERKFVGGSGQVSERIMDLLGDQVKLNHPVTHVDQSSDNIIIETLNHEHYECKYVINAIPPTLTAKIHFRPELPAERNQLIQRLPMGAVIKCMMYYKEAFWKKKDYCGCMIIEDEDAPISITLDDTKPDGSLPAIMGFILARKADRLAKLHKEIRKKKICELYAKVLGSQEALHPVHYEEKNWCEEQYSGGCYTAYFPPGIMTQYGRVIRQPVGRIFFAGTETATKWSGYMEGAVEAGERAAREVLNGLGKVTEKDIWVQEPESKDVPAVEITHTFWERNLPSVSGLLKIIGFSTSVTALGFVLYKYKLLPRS
Procedure, shortened: as §1

[3] = target: T4, recombinant human MAO-B (monoamine oxidase-B) (Homo sapiens, UniProt P27338); test: Activity evaluation on recombinant human MAO-B (Amplex Red/HRP-coupled assay, 1 mM benzylamine substrate); conditions: read-out: Inhibitory Activity (IC50, nM) MAO-B
T4 construct: purchased Sigma-Aldrich
T4 sequence (P27338 1-520): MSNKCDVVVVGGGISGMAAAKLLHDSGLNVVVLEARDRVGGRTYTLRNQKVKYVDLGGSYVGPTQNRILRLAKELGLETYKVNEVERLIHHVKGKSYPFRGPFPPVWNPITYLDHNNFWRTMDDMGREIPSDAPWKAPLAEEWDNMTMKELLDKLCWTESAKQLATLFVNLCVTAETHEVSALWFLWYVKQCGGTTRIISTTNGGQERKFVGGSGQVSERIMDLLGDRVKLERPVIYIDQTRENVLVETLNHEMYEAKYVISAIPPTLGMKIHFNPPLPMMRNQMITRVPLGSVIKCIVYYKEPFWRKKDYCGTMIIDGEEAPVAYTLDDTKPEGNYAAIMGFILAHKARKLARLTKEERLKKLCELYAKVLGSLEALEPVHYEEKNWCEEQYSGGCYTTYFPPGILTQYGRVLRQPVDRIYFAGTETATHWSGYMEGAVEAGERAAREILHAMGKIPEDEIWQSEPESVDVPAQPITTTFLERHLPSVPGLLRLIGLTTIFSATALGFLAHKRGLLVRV
Procedure, shortened: as §1

[4] = recombinant human VAP-1, 30 min preincubation at 37° C., 1 mM benzylamine
[5] = recombinant human VAP-1, benzylamine substrate

SMILES | IC50 ([1]; 1 mM putrescine) [nM] | IC50 (recombinant human VAP-1; [4]) [nM] | IC50 ([2]; 0.5 mM tyramine) [nM] | IC50 ([3]; 1 mM benzylamine) [nM] | IC50 ([1]; 1 mM putrescine substrate) [nM] | IC50 (recombinant human VAP-1; [5]) [nM] | IC50 ([2]; 0.5 mM tyramine substrate) [nM] | IC50 ([3]; 1 mM benzylamine substrate) [nM]
Cc1cc(-c2csc(Cn3cnn(CC(CN)=C(F)F)c3=O)c2)cc2c1NC(=O)CC2 [Example 151, 6-[5-[[1-[2-(aminomethyl)-3,3-difluoro-allyl]-5-oxo-1,2,4-triazol-4-yl]methyl]-3-thienyl]-8-methyl-3,4-dihydro-1H-quinolin-2-one Trifluoroacetate] | 6600 | 0.3 | > 100000 | 26100 | – | – | – | –
CS(=O)(=O)c1ccc(-c2cc(-n3cnn(CC(CN)=C(F)F)c3=O)ccn2)cc1 [Example 61, 2-[2-(aminomethyl)-3,3-difluoro-allyl]-4-[2-(4-methylsulfonylphenyl)-4-pyridyl]-1,2,4-triazol-3-one Trifluoroacetate] | 19 | 0.7 | > 100000 | 14000 | – | – | – | –
CN(C)C(=O)c1cccc(-c2ccc(Cn3cnn(CC(CN)=C(F)F)c3=O)s2)c1 [Example 181, 3-[5-[[1-[2-(aminomethyl)-3,3-difluoro-allyl]-5-oxo-1,2,4-triazol-4-yl]methyl]-2-thienyl]-N,N-dimethyl-benzamide trifluoroacetate] | – | – | – | – | > 10000 | 2.3 | > 100000 | > 100000
CN1C(=O)CCc2cc(-c3cccc(Cn4cnn(CC(CN)=C(F)F)c4=O)c3)ccc21 [Example 276, 6-[3-[[1-[2-(aminomethyl)-3,3-difluoro-allyl]-5-oxo-1,2,4-triazol-4-yl]methyl]phenyl]-1-methyl-3,4-dihydroquinolin-2-one Trifluoroacetate] | – | – | – | – | 3080 | 0.5 | > 100000 | 2250
Cc1cc(-c2ccc(Cn3cnn(CC(CN)=C(F)F)c3=O)cc2)cc2c1NC(=O)CC2 [Example 269, 6-[4-[[1-[2-(aminomethyl)-3,3-difluoro-allyl]-5-oxo-1,2,4-triazol-4-yl]methyl]phenyl]-8-methyl-3,4-dihydro-1H-quinolin-2-one Trifluoroacetate] | – | – | – | – | 71000 | 1 | > 100000 | > 100000
Cc1cc(Br)sc1Cn1cnn(CC(CN)=C(F)F)c1=O [Example 99, 2-[2-(aminomethyl)-3,3-difluoro-allyl]-4-[(5-bromo-3-methyl-2-thienyl)methyl]-1,2,4-triazol-3-one Trifluoroacetate] | > 100000 | 9.3 | > 100000 | 21000 | – | – | – | –
Cc1cc(C#Cc2ccc3c(n2)OCCN3)cnc1-n1cnn(CC(CN)=C(F)F)c1=O [Example 246, 2-[2-(aminomethyl)-3,3-difluoro-allyl]-4-[5-[2-(2,3-dihydro-1H-pyrido[2,3-b][1,4]oxazin-6-yl)ethynyl]-3-methyl-2-pyridyl]-1,2,4-triazol-3-one ditrifluoroacetate] | – | – | – | – | 59000 | 2.3 | > 100000 | 120000
Cc1cc(Br)ncc1-n1cnn(CC(CN)=C(F)F)c1=O [Example 12, 2-[2-(aminomethyl)-3,3-difluoro-allyl]-4-(6-bromo-4-methyl-3-pyridyl)-1,2,4-triazol-3-one Trifluoroacetate] | 55000 | 43 | > 100000 | > 10000 | – | – | – | –
Cc1c(-c2ccc(S(C)(=O)=O)cc2)cccc1-n1cnn(CC(CN)=C(F)F)c1=O [Example 253, 2-[2-(aminomethyl)-3,3-difluoro-allyl]-4-[2-methyl-3-(4-methylsulfonylphenyl)phenyl]-1,2,4-triazol-3-one Trifluoroacetate] | – | – | – | – | 8700 | 2.8 | > 100000 | > 100000
NCC(Cn1ncn(Cc2ccc(-c3cc(F)c4c(c3)CCC(=O)N4)s2)c1=O)=C(F)F [Example 136, 6-[5-[[1-[2-(aminomethyl)-3,3-difluoro-allyl]-5-oxo-1,2,4-triazol-4-yl]methyl]-2-thienyl]-8-fluoro-3,4-dihydro-1H-quinolin-2-one Trifluoroacetate] | > 100000 | 0.4 | > 100000 | > 100000 | – | – | – | –
NCC(Cn1ncn(Cc2ccccc2-c2ccc3c(c2)OCO3)c1=O)=C(F)F [Example 282, 2-[2-(aminomethyl)-3,3-difluoro-allyl]-4-[[2-(1,3-benzodioxol-5-yl)phenyl]methyl]-1,2,4-triazol-3-one Trifluoroacetate] | – | – | – | – | > 100000 | 28 | > 100000 | > 100000
NCC(Cn1ncn(Cc2ccc(/C=C/c3cnc4c(c3)NC(=O)CO4)s2)c1=O)=C(F)F [Example 161, 7-[(E)-2-[5-[[1-[2-(aminomethyl)-3,3-difluoro-allyl]-5-oxo-1,2,4-triazol-4-yl]methyl]-2-thienyl]vinyl]-1H-pyrido[2,3-b][1,4]oxazin-2-one Trifluoroacetate] | 54000 | 0.2 | > 100000 | > 100000 | – | – | – | –
